In patent publication US12662451B2, “Chemical compounds and uses thereof” (GLAXOSMITHKLINE INTELLECTUAL PROPERTY (NO.4) LIMITED, priority 2023, dated 2026):

Target: T1, recombinant full-length WRN protein (1-1432) (Homo sapiens, UniProt Q14191)
T1 construct: recombinant full-length WRN protein (1-1432)
Experiment: WRN unwinding activity, fluorogenic 384-well assay (Example A)
Format: biochemical
Settings: WRN unwinding activity, 4 hr; Table 2; read-out: 4 hr UNW pIC50 (converted)
Experimental: Functional WRN unwinding activity can be measured using a fluorogenic plate based 384 well assay configured to measure the separation of labeled double stranded DNA substrate. Compounds were dosed out in neat DMSO with a 1:3 serial dilution scheme. 100 nL of compound was stamped into Greiner low volume black assay plates (Greiner Cat #784076) using the Echo Acoustic Dispenser to generate assay ready plates. All solutions were prepared in assay buffer (25 mM TRIS (pH8.0), 5 mM NaCl, 2 mM MgCl2, 1 mM DTT, 0.05% BSA) for this 10 μL low volume reaction. To prepare the solutions, a 2×WRN Enzyme cocktail was made containing 200 pM of recombinant full-length WRN protein (1-1432). A 2× Substrate cocktail was made to consist of both 200 μM ATP (any ultrapure ATP sample) and 12 nM of the fluorescent quenched labeled double stranded DNA oligomer (IDT Custom synthesis; 5′-5IABkFQ (SEQ ID NO. 1)/GCACTGGCCGTCGTTTTACGGTCGTGACT-3′ (SEQ ID NO. 2): 5′-TTTTTTACTTAACGACGGCCAGTGC (SEQ ID NO. 3)/36-TAMTSP/-3′ (SEQ ID NO. 4)). To start the reaction, 5 μL of assay buffer was added to a single column to serve as the low control. Following this, 5 μL of 2×WRN Enzyme was added in all wells except the buffer low control wells. The reaction plate was covered and incubated at ambient temperature for 4 hours to allow for time dependent inhibition if it existed. After 4 hours, the addition of 5 μL of 2×-ATP/DNA substrate cocktail was added across all wells of the assay plate. This initiated the reaction, as the plate was incubated at ambient temperature for 60 minutes for the unwinding reaction to occur. A 10 mM EDTA solution was prepared and added at 5 μL across the entire plate after 60 minutes to quench the samples for an endpoint measurement. Fluorescent intensity was measured using excitation and emission wavelengths of 525 nm and 598 nm, respectively. High florescent intensity (DMSO with buffer) represents full inhibition of unwinding activity and low florescent intensity (DMSO with enzyme) represents no inhibition of unwinding activity. The potency of the compounds was determined using a four-parameter inhibition model to generate pIC50, Hill Slope, maximum inhibition (see Table 2).

T1 sequence (Q14191 whole entry): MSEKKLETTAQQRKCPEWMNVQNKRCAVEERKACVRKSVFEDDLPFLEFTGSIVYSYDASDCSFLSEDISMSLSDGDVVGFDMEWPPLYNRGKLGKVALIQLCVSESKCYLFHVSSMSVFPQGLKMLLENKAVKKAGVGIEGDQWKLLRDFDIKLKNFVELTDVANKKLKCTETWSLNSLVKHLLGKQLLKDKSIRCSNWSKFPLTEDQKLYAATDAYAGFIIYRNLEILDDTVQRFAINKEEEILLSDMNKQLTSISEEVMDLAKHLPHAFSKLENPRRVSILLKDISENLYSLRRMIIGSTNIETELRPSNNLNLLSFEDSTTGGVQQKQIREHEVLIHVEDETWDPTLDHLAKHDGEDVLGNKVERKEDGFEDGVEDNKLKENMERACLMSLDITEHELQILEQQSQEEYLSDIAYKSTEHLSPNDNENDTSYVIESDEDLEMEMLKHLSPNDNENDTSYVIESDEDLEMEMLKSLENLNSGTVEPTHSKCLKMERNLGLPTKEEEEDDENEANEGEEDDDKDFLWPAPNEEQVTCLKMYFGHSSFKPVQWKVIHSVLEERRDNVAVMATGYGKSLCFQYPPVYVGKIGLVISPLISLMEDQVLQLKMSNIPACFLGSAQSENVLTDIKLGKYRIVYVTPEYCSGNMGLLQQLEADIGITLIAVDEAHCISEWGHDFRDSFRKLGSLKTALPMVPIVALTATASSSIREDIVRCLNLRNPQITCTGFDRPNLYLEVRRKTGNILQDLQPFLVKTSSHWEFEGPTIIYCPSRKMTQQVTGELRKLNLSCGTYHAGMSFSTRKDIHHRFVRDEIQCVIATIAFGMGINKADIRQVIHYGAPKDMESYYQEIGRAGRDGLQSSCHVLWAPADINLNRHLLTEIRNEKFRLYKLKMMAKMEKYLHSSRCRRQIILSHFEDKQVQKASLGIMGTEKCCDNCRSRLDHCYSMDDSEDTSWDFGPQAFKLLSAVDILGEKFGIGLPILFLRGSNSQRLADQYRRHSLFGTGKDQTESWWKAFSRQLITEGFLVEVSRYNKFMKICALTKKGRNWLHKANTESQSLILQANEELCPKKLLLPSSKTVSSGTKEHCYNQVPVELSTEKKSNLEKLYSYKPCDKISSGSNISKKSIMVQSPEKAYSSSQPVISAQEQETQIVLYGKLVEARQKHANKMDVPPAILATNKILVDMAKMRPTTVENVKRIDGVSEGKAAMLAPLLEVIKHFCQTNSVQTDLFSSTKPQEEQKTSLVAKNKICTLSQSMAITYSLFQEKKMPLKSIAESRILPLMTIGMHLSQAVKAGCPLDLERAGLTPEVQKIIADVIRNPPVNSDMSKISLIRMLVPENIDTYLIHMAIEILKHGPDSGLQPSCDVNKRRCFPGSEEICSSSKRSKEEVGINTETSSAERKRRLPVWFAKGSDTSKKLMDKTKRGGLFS

Compound | IC50 [nM]
CCC[C@H]1CC[C@@H](NC(=O)[C@@H]2CCC[C@H](c3ccc(N(C)S(=O)(=O)c4ccc5c(c4)nc(C)n5C)cc3)[C@H]2C(=O)O)CC1 [Example 195, (1R,2R,6S)-2-(((1r,4R)-4-propylcyclohexyl)carbamoyl)-6-(4-((N,1,2-trimethyl-1H-benzo[d]imidazole)-5-sulfonamido)phenyl)cyclohexane-1-carboxylic acid] | 20
CC(C)(O)C#Cc1cc([C@H]2CCC[C@@H](C(=O)Nc3ccc(C(F)(F)F)cc3F)[C@@H]2C(=O)O)ccc1C(F)(F)F (racemic) [Example 239, rac-(1R,2R,6S)-2-((2-fluoro-4-(trifluoromethyl)phenyl)carbamoyl)-6-(3-(3-hydroxy-3-methylbut-1-yn-1-yl)-4-(trifluoromethyl)phenyl)cyclohexane-1-carboxylic acid] | 251
CC#Cc1cc([C@H]2CCC[C@@H](C(=O)Nc3ccc(C(F)(F)F)cc3F)[C@@H]2C(=O)O)ccc1C(F)(F)F (racemic) [Example 240, rac-(1R,2R,6S)-2-((2-fluoro-4-(trifluoromethyl)phenyl)carbamoyl)-6-(3-(prop-1-yn-1-yl)-4-(trifluoromethyl)phenyl)cyclohexane-1-carboxylic acid] | 3980
Cc1nc2cc(S(=O)(=O)N(C)c3ccc([C@H]4CCC[C@H](C(=O)Nc5ccc(C(C)C)cc5)[C@@H]4C(=O)O)cc3)ccc2n1C (single isomer, unassigned) [Example 74] | 251
CN(c1ccc([C@H]2CCC[C@@H](C(=O)Nc3ccc(C(F)(F)F)cc3F)[C@@H]2C(=O)O)cc1)S(=O)(=O)c1ccc(C=O)c(O)c1 [Example 276, (1R,2R,6S)-2-((2-fluoro-4-(trifluoromethyl)phenyl)carbamoyl)-6-(4-((4-formyl-3-hydroxy-N-methylphenyl)sulfonamido)phenyl)cyclohexane-1-carboxylic acid] | 6.31

More lines, now with the values ahead:

IC50 [nM] | Compound
2510 | CC(=O)N[C@H]1C[C@H](COc2ccc(C(F)(F)F)cc2)[C@@H](C(=O)O)[C@H](c2ccc(N(C)S(=O)(=O)c3ccc4c(c3)nc(C)n4C)cc2)C1 (single isomer, unassigned) [Example 297]
12600 | Cc1nc2cc(S(=O)(=O)N(C)c3ccc([C@@H]4C[C@@H](N5CC6(F)CC5C6)C[C@H](C(=O)Nc5ccc(C(F)(F)F)cc5F)[C@H]4C(=O)O)cc3)ccc2n1C (relative stereo) [Example 399, rel-(1R,2R,4S,6S)-2-((2-fluoro-4-(trifluoromethyl)phenyl)carbamoyl)-4-(4-fluoro-2-azabicyclo[2.1.1]hexan-2-yl)-6-(4-((N,1,2-trimethyl-1H-benzo[d]imidazole)-5-sulfonamido)phenyl)cyclohexane-1-carboxylic acid]
316 | Cc1nc2cc(S(=O)(=O)N(C)c3ccc([C@@H]4C[C@H](N5CCC(F)(F)C5)C[C@H](C(=O)Nc5ccc(C(F)(F)F)cc5F)[C@H]4C(=O)O)cc3)ccc2n1C [Example 305, (1S,2S,4S,6R)-4-(3,3-difluoropyrrolidin-1-yl)-2-((2-fluoro-4-(trifluoromethyl)phenyl)carbamoyl)-6-(4-((N,1,2-trimethyl-1H-benzo[d]imidazole)-5-sulfonamido)phenyl)cyclohexane-1-carboxylic acid]
251 | CCO[C@@H]1C[C@H](C(=O)Nc2ccc(C(F)(F)F)cc2F)[C@@H](C(=O)O)[C@H](c2ccc(N(C)S(=O)(=O)c3ccc4c(c3)nc(C)n4C)cc2)C1 (single isomer, unassigned) [Example 137]
3980 | CCCO[C@@H]1C[C@H](C(=O)Nc2ccc(C(F)(F)F)cc2F)[C@@H](C(=O)O)[C@H](c2ccc(N(C)S(=O)(=O)c3ccc4c(c3)nc(C)n4C)cc2)C1 (stereo in doubt) [Example 150, rel-(1R,2R,4R,6S)-2-((2-fluoro-4-(trifluoromethyl)phenyl)carbamoyl)-4-propoxy-6-(4-((N,1,2-trimethyl-1H-benzo[d]imidazole)-5-sulfonamido)phenyl)cyclohexane-1-carboxylic acid]
